Reference: patent US20250314869A1, “SYSTEMS AND METHODS FOR HIGH THROUGHPUT SINGLE MOLECULE TRACKING IN LIVING CELLS” (EIKON THERAPEUTICS, INC., priority 2022, published 2025)
Entries after “also recorded” stand apart in the source; their conditions may differ. Read-outs that look alike come from different tables or passages of the source.

Tests used:
ER = ER (Homo sapiens, UniProt P03372); assay: western blot of ER after 24 hours treatment; format: cell-based; details: 24 hours prior to lysis; MCF7, T47d, U2OS ER-HaloTag
Procedure: Cells were grown in the same conditions as described previously. […] Cells are lysed in 200 μL 1× Cell Lysis Buffer (catalogue number 9803, Cell Signaling). Protein lysate concentration is then determined using BCA protein assay kit (Catalog number 23225, Pierce™ BCA Protein Assay Kit) following manufacturer instructions. Capillary Western Immunoassay were performed using Jess Protein Simple following manufacturer's instruction (protein simple, USA). Levels of αER (1:100, RM-9101) were normalized to loading control β-tubulin (1:100, NC0244815 LI-COR 92642213, Thermo Fisher). The peaks were analyzed with the Compass software (Protein Simple, USA).

Estrogen Receptor (ER) [1] = molecular target: T1, Estrogen Receptor (ER) (Homo sapiens, UniProt P03372); assay: htSMT of Halo-ER in U2OS cells (fbound, Dfree); format: cell-based; details: for change in ER fbound: follow-up of selected compounds
T1 construct: expressed in transfected cells
T1 sequence (P03372 1-595): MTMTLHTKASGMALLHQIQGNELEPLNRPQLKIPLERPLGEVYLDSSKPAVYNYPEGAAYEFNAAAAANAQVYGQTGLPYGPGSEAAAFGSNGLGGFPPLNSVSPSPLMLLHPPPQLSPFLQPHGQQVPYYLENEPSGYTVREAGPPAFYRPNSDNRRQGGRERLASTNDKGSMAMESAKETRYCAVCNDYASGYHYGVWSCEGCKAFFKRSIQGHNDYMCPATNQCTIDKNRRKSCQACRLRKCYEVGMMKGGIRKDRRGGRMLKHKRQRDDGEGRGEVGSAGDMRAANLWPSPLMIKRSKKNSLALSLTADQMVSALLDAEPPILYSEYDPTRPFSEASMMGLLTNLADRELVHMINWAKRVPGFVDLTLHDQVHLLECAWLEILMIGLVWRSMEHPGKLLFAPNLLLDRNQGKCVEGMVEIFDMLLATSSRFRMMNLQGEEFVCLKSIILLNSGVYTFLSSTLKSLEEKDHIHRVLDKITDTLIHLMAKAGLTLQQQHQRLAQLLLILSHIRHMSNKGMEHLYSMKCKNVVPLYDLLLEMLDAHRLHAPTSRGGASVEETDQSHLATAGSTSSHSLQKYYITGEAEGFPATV

Estrogen Receptor (ER) [2] = molecular target: T1, Estrogen Receptor (ER); assay: residence time imaging of ER-Halo (track length); format: cell-based; details: versus DMSO, 100 nM HSP90 inhibition
Estrogen Receptor (ER) [3] = molecular target: T1, Estrogen Receptor (ER); assay: kinetic SMT (kSMT) of ER after compound addition; format: cell-based; details: 100 nM compound
androgen receptor (AR) = androgen receptor (AR) (Homo sapiens, UniProt P10275)
[4] = molecular target: T2, glucocorticoid receptor (GR) (Homo sapiens, UniProt P04150); assay: htSMT of Halo-GR in U2OS cells; format: cell-based; details: 1 μM antagonist, singly or with cognate agonist
T2 construct: Because U2OS cells express GR endogenously; endogenous in cells; host or cells: U2OS, CRISPR/Cas9 knock-in at the endogenous NR3C1 locus
T2 sequence (P04150 1-777): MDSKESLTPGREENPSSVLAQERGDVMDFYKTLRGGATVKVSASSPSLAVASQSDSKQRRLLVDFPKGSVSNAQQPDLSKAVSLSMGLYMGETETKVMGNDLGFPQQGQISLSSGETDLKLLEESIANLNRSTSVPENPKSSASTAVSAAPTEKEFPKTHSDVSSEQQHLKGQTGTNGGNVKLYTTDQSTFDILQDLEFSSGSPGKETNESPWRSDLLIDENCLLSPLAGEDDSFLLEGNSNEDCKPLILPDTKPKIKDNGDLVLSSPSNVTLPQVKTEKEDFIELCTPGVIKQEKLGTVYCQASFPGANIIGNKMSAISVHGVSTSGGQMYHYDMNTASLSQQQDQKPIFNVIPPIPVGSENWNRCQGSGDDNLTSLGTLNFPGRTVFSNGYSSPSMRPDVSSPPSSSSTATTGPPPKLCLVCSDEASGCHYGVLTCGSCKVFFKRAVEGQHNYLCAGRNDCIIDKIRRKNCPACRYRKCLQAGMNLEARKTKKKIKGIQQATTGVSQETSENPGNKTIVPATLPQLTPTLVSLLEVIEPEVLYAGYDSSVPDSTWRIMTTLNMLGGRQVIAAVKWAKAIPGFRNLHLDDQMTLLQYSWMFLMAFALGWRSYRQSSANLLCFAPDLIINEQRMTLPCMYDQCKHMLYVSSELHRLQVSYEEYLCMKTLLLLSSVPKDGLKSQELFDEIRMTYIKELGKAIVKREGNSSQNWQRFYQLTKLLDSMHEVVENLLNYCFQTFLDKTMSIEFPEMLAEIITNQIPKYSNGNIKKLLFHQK
Text: Where appropriate, compounds were serially diluted in an Echo Qualified 384-Well Low Dead Volume Source Microplate (0018544, Beckman Coulter) to generate dose-titration source material.

androgen receptor (AR), sequence (P10275 whole entry): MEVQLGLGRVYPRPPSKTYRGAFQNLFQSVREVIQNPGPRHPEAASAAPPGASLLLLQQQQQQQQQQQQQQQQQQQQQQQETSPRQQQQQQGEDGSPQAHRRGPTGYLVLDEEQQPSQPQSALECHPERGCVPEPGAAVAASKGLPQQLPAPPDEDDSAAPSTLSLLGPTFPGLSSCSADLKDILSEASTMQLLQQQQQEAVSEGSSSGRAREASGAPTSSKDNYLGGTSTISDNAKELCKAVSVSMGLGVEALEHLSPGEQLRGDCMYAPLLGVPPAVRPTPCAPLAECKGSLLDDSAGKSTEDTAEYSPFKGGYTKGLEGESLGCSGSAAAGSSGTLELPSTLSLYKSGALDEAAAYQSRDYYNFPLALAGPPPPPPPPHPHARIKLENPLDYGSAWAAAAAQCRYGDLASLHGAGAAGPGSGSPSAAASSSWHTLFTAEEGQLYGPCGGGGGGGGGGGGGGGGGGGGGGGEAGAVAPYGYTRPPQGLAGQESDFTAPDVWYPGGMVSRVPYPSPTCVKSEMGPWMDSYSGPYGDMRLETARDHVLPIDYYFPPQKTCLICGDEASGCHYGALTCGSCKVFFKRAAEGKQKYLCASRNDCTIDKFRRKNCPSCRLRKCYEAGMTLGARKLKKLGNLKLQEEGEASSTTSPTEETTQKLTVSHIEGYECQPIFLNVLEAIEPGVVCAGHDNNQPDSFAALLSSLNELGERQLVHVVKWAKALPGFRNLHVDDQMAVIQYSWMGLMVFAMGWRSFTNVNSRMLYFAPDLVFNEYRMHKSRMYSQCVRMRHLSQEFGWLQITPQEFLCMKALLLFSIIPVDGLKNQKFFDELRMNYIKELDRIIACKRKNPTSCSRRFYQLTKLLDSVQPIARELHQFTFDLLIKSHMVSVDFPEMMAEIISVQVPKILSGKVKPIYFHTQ

Compound	change in ER fbound (Estrogen Receptor (ER) [1])	decrease in total number of long binding events (Estrogen Receptor (ER) [2])	time at which overall effect on fbound reached a plateau (Estrogen Receptor (ER) [3])	further results
C[C@]12CC[C@@H]3c4ccc(O)cc4C[C@@H](CCCCCCCCC[S+]([O-])CCCC(F)(F)C(F)(F)F)[C@H]3[C@@H]1CC[C@@H]2O (stereo partly drawn) [fulvestrant]				ER degradation (western blot) (ER): degradation of ER; change in ER fbound in bioactive screen (Estrogen Receptor (ER) [1]; 1 μM compound versus DMSO): increase in fbound; also recorded: significantly increased fbound
4-hydroxytamoxifen				change in ER fbound in bioactive screen (Estrogen Receptor (ER) [1]): significantly increased fbound; maximal increase in ER fbound (Estrogen Receptor (ER) [1]): lower maximal increases in fbound
CC(C)c1cc(-c2n[nH]c(=O)n2-c2ccc3c(ccn3C)c2)c(O)cc1O [ganetespib]	increase in fbound	four	plateau after an hour	
CC(O)c1cc(C(=O)N[C@@H](C)Cn2ccc(-c3ccc(C#N)c(Cl)c3)n2)[nH]n1 (stereo partly drawn) [Darolutamide]				AR fbound / chromatin binding (androgen receptor (AR)): decrease in chromatin binding
COc1cccc(-c2cc(F)ccc2[C@H]2Cc3nc(N)nc(C)c3C(=O)N2)n1 [HSP990]	increase in fbound	two	plateau after an hour	
CN(C)c1ccc(C(c2ccc(N(C)C)cc2)c2cc([N+](=O)[O-])ccc2Cl)cc1 [AL082D06]				GR chromatin binding (fbound) [4]: decrease in chromatin binding
